Data on six compounds can be found in ChEMBL document CHEMBL1159356, “Cytotoxic styrylpyrones from Goniothalamus amuyon” (J Nat Prod, 2003).

One assay relates to NUGC. Kind of assay: Cytotoxicity against human NUGC cells. The class given is functional, cell-based.
A short description of assay [1]: Cytotoxicity against human HONE1 cells. The class given is functional, cell-based.

Structures are written as SMILES. Converted amounts (≈) assume the structure as drawn. Numbered stars: 1 amine (or outer) side, 2 acyl side, 3 side chain; on linkers, the order of the positions; unused ones are H or OH. Bridge positions count the residues as written; N and C are the ends. Square brackets hold non-standard residues; d marks the D form. Peptide text beside a SMILES is read from it. I, II: the chains in the order shown. Actinocin(1to9) = Cc1c2oc3c(C)ccc(C(=O)[*:2])c3nc-2c(C(=O)[*:1])c(N)c1=O; NMeV = CN[C@H](C(=O)O)C(C)C; Sar = CNCC(=O)O

Turning to `CC(=O)O[C@H]([C@H](O)c1ccccc1)[C@H]1CC=CC(=O)O1`, the IC50 came out at 4.12 µg/mL (≈ 14.9 µM) in the assay with NUGC and 5.69 µg/mL (≈ 20.6 µM) in assay [1].
As for `CC(=O)O[C@H](c1ccccc1)[C@H](O)[C@H]1CC=CC(=O)O1`, the IC50 in the assay with NUGC amounted to 5.02 µg/mL (≈ 18.2 µM); in assay [1], 6.09 µg/mL (≈ 22 µM).
As for `O=C1C=CC[C@H]([C@@H](O)[C@H](Cl)c2ccccc2)O1` [6R,7R,8R-8-CHLOROGONIODIOL], the figures for the IC50 (in the assay with NUGC; in assay [1]) were 31 µg/mL (≈ 123 µM) and 4.87 µg/mL (≈ 19.3 µM), respectively.
`CO[C@H](c1ccccc1)[C@H](O)[C@H]1CC=CC(=O)O1` [6R,7R,8R-8-METHOXYGONIODIOL]: the IC50 with NUGC was found to be 168 µg/mL (≈ 675 µM); in assay [1], 240 µg/mL (≈ 965 µM).
The matching figures for `Cc1c2oc3c(C)ccc(C(=O)N[C@@H]4C(=O)N[C@H](C(C)C)C(=O)N5CCC[C@H]5C(=O)N(C)CC(=O)N(C)[C@@H](C(C)C)C(=O)O[C@@H]4C)c3nc-2c(C(=O)N[C@@H]2C(=O)N[C@H](C(C)C)C(=O)N3CCC[C@H]3C(=O)N(C)CC(=O)N(C)[C@@H](C(C)C)C(=O)O[C@@H]2C)c(N)c1=O` [DACTINOMYCIN] (I: T[dV]P[Sar][NMeV] / II: T[dV]P[Sar][NMeV]; ester I:1-I:C, II:1-II:C; linker I:N-II:N via Actinocin(1to9)): 6.61 µg/mL (≈ 5.27 µM) and 4.53 µg/mL (≈ 3.61 µM).
In the case of `O=C1C=CC[C@H]([C@@H]2O[C@H]2c2ccccc2)O1` [GONIOTHALAMIN EPOXIDE], the IC50 in the assay on NUGC amounted to 32.1 µg/mL (≈ 148 µM); in assay [1], 36.3 µg/mL (≈ 168 µM).

As usually defined, the IC50 is the concentration that gives 50% inhibition.
